Test systems include MOLT-4; HCT-116; 786-0; Hs-578T; SF-295; A549; M14; OVCAR-8; CCRF-CEM; HOP-92; UO-31; A498; CAKI-1; OVCAR-5; UACC-257; NCI-H460; COLO 205; MDA-MB-231; TK-10; SF-268.
Assay in all cases: NCI anticancer screen, dose series, 48 h

Ten molecules from ChEMBL document CHEMBL1201862, “PubChem BioAssay data set” (2004) can be followed below.

SMILES strings stand for the structures.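 How tested: cells in 96-well plates exposed to compound for 48 hours at five concentrations. The concentration for 50% growth inhibition is given as GI50.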 Active and inactive are the calls of the source. Cut-off read from the data, not from the text of the source: active = GI50 up to about 1.1 µM and inactive = higher. Where a SMILES comes first, the peptide text is derived from it. The star is where a group is joined. Fmoc = O=C(OCC1c2ccccc2-c2ccccc21)*; Boc = CC(C)(C)OC(=O)*

For the molecule `COC1OC(Cn2c(C)nc(Br)c2Br)C(O)C(O)C1O` (stereo unspecified), the GI50 with MOLT-4, in the assay on HCT-116, in the assay on 786-0, in the assay with Hs-578T, in the assay on SF-295 and in the assay on A549 was > 100 µM (inactive) throughout. The GI50 in the assay with M14, in the assay with OVCAR-8, in the assay with CCRF-CEM, with HOP-92, in the assay with UO-31 and in the assay on A498 was > 100 µM (inactive) throughout. In addition, the GI50 in the assay on CAKI-1, in the assay on OVCAR-5, with UACC-257, with NCI-H460, with COLO 205 and in the assay on MDA-MB-231 was > 100 µM (inactive) in each case.
With `CC(C)(C)OC(=O)NCCCCC(NC(=O)OCC1c2ccccc2-c2ccccc21)C(=O)N1CCCC1C(=O)NCC(N)=O` (stereo not drawn) (Fmoc-Lys(Boc)-Pro-Gly-NH2; configuration not given here), the GI50 in the assay on MOLT-4 is 29.5 µM (inactive); in the assay on HCT-116 it was 36.6 µM (inactive); in the assay on 786-0, 19.3 µM (inactive); in the assay on Hs-578T, > 100 µM (inactive); in the assay with SF-295, 78.3 µM (inactive); with A549, 51.4 µM (inactive). Moreover, the GI50 was 35.1 µM (inactive) in the assay with M14; 66.5 µM (inactive) in the assay with OVCAR-8; 76.6 µM (inactive) with CCRF-CEM; 20.4 µM (inactive) in the assay with HOP-92; 15.3 µM (inactive) in the assay on UO-31; 16.4 µM (inactive) in the assay with CAKI-1. The GI50 is > 100 µM (inactive) in the assay with OVCAR-5; > 100 µM (inactive) in the assay on TK-10; > 100 µM (inactive) in the assay with UACC-257; 20.3 µM (inactive) with NCI-H460; 28.4 µM (inactive) in the assay with COLO 205; 95.5 µM (inactive) in the assay on SF-268. Further, the GI50 in the assay on MDA-MB-231 is 46.7 µM (inactive).
For `CN1CC[C@]23c4c5ccc(O)c4OC2c2[nH]ncc2C[C@H]3[C@H]1C5` (stereo partly specified), the GI50 in the assay on MOLT-4, in the assay with HCT-116, in the assay on 786-0, with Hs-578T, with SF-295 and in the assay with A549 was > 100 µM (inactive) throughout. Moreover, the GI50 with M14, in the assay with OVCAR-8, with CCRF-CEM, in the assay on HOP-92, with UO-31 and in the assay on CAKI-1 was > 100 µM (inactive) in each case. Besides, the GI50 in the assay on OVCAR-5, in the assay with TK-10, in the assay on UACC-257, with NCI-H460, in the assay with COLO 205 and with SF-268 was > 100 µM (inactive) each time. For the same molecule, the GI50 with MDA-MB-231 is > 100 µM (inactive).
`C(=C\c1cc[n+](CCc2ccccc2)cc1)/c1ccccc1`: the GI50 in the assay with MOLT-4 is 12.9 µM (inactive); with HCT-116, 11.3 µM (inactive); in the assay with 786-0 it was 21.8 µM (inactive); in the assay on Hs-578T, 15.2 µM (inactive); in the assay with SF-295, 24.9 µM (inactive); in the assay on A549, 5.64 µM (inactive). Moreover, the GI50 in the assay with M14 was 7.91 µM (inactive); with OVCAR-8, 3.86 µM (inactive); in the assay with CCRF-CEM it was 13.4 µM (inactive); in the assay on HOP-92, 24.7 µM (inactive); in the assay on UO-31 it was > 100 µM (inactive); in the assay with CAKI-1, 22.4 µM (inactive). In addition, the GI50 was 22.9 µM (inactive) with OVCAR-5; 21.5 µM (inactive) with TK-10; 4.25 µM (inactive) in the assay with UACC-257; 8.69 µM (inactive) in the assay on NCI-H460; 5.73 µM (inactive) in the assay on COLO 205; 18.1 µM (inactive) in the assay with SF-268. The GI50 in the assay with MDA-MB-231 was 12.6 µM (inactive).
For the molecule `Clc1ccc(Cc2nc3ccccc3nc2-c2cccc(Br)c2)cc1`, the GI50 in the assay on MOLT-4 was 2.22 µM (inactive); in the assay on HCT-116, 1.88 µM (inactive); with 786-0, 1.75 µM (inactive); in the assay on Hs-578T, 1.69 µM (inactive); in the assay on SF-295 it was 16.1 µM (inactive); in the assay with A549, 17 µM (inactive). For the same molecule, the GI50 in the assay with M14 is 2.32 µM (inactive); in the assay with OVCAR-8 it was 2.92 µM (inactive); with CCRF-CEM, 1.07 µM (active); in the assay on HOP-92, 0.243 µM (active); with UO-31, 1.87 µM (inactive); with CAKI-1, 2.22 µM (inactive). Further, the GI50 in the assay on OVCAR-5 was 4.19 µM (inactive); with TK-10, 13.7 µM (inactive); in the assay on UACC-257, 3.1 µM (inactive); in the assay with NCI-H460 it was 18.3 µM (inactive); with COLO 205, 3.17 µM (inactive); in the assay on SF-268 it was 19.8 µM (inactive). The GI50 in the assay on MDA-MB-231 was 3.6 µM (inactive).
On to `Cc1ccc(S(=O)(=O)Oc2nc3ccccc3nc2N(S(=O)(=O)c2ccc(C)cc2)S(=O)(=O)c2ccc(C)cc2)cc1`, for which the GI50 in the assay on MOLT-4 was 47.4 µM (inactive); in the assay on HCT-116 it was 36.3 µM (inactive); in the assay on 786-0, 38.6 µM (inactive); in the assay on Hs-578T, 63.1 µM (inactive); with SF-295, 30.3 µM (inactive); in the assay with A549, 85.1 µM (inactive). Further, the GI50 in the assay with M14 is 76.6 µM (inactive); with OVCAR-8 it was 52.2 µM (inactive); with CCRF-CEM it was 50.1 µM (inactive); with UO-31 it was 61.8 µM (inactive); in the assay on A498, 89.9 µM (inactive); in the assay on CAKI-1, 72.4 µM (inactive). Also, the GI50 is 33 µM (inactive) in the assay with OVCAR-5; 39.8 µM (inactive) in the assay on TK-10; 61.1 µM (inactive) in the assay with UACC-257; 28.7 µM (inactive) with NCI-H460; > 100 µM (inactive) in the assay on COLO 205; 50.6 µM (inactive) in the assay on SF-268. Also, the GI50 with MDA-MB-231 is 71.6 µM (inactive).
For the molecule `Nc1ccc2nc3c(nc2c1)C(=O)c1ccccc1-3`, the GI50 in the assay with MOLT-4 is 20.3 µM (inactive); in the assay with HCT-116 it was > 100 µM (inactive); in the assay with 786-0, 75 µM (inactive); with Hs-578T it was > 100 µM (inactive); with SF-295 it was > 100 µM (inactive); in the assay on A549, > 100 µM (inactive). For the same molecule, the GI50 in the assay with M14 is > 100 µM (inactive); in the assay on OVCAR-8, > 100 µM (inactive); in the assay with CCRF-CEM, 84.3 µM (inactive); in the assay with HOP-92, > 100 µM (inactive); in the assay on OVCAR-5, > 100 µM (inactive); in the assay with TK-10, > 100 µM (inactive). Also, the GI50 was > 100 µM (inactive) with UACC-257; 69.2 µM (inactive) in the assay on NCI-H460; > 100 µM (inactive) in the assay with COLO 205; > 100 µM (inactive) with SF-268; > 100 µM (inactive) in the assay on MDA-MB-231.
Regarding `O=C1Nc2nccnc2C(=O)N2CCC[C@@H]12`, the GI50 in the assay on MOLT-4, with HCT-116, with 786-0, in the assay with Hs-578T, in the assay on SF-295 and in the assay on A549 was > 100 µM (inactive) each time. Moreover, the GI50 in the assay on M14, in the assay on OVCAR-8, in the assay with CCRF-CEM, in the assay with HOP-92, in the assay with UO-31 and with CAKI-1 was > 100 µM (inactive) throughout. Besides, the GI50 with OVCAR-5, in the assay with TK-10, with UACC-257, with NCI-H460, in the assay on COLO 205 and in the assay with SF-268 was > 100 µM (inactive) throughout. Further, the GI50 in the assay on MDA-MB-231 is > 100 µM (inactive).
In the case of `CC(C(=O)NCNC(=O)c1ccccc1)C(=O)NCc1ccccc1` (stereo unspecified), the GI50 with MOLT-4, in the assay with HCT-116, in the assay on 786-0, with Hs-578T, in the assay with SF-295 and in the assay with A549 was > 100 µM (inactive) each time. Also, the GI50 in the assay on M14, in the assay with OVCAR-8, with CCRF-CEM, with HOP-92, with UO-31 and with CAKI-1 was > 100 µM (inactive) in each case. Further, the GI50 with OVCAR-5, in the assay on TK-10, with UACC-257, in the assay with NCI-H460, in the assay on COLO 205 and in the assay with SF-268 was > 100 µM (inactive) each time. Also, the GI50 in the assay with MDA-MB-231 is > 100 µM (inactive).
With `CSC1=NN(c2ccccc2)C(=O)C1=C(SC)SC`, the GI50 is 26 µM (inactive) in the assay with MOLT-4; 16.7 µM (inactive) in the assay with HCT-116; 24.2 µM (inactive) in the assay on 786-0; 18.1 µM (inactive) in the assay with Hs-578T; 20 µM (inactive) in the assay with A549; 37.2 µM (inactive) in the assay on M14. Also, the GI50 is 21.5 µM (inactive) in the assay on OVCAR-8; 14.2 µM (inactive) with CCRF-CEM; 12.1 µM (inactive) in the assay on UO-31; 13.3 µM (inactive) in the assay on A498; 20 µM (inactive) in the assay with CAKI-1; 31.6 µM (inactive) in the assay on OVCAR-5. In addition, the GI50 was 19.5 µM (inactive) in the assay with TK-10; 16 µM (inactive) in the assay with UACC-257; 14.2 µM (inactive) in the assay with NCI-H460; 13.2 µM (inactive) in the assay on COLO 205; 26.1 µM (inactive) in the assay on SF-268; 14.3 µM (inactive) with MDA-MB-231.
